Laboratory results taken from PubChem BioAssay AID2060497 (Molecular Pharmacology Branch, DTP, NCI, 2025).
Several values for one entry are separate records, joined by “and”; a condition that tells them apart may be missing. Equal entries are not always repeated.

Tested on: 317291-083-R-J1-PDC complex spheroids, viability
Assay: Anticancer human tumor 317291-083-R-J1-PDC patient-derived soft tissue sarcoma cell line growth inhibition [GQUAD]
Conditions: for viability, T/C: stronger effect = lower value
Excerpt: DNA G-quadruplex Stabilizer Agents in Combinations in Complex Spheroids
A high-throughput screen of multi-cell type tumor spheroids was designed to identify active combinations of DNA G-quadruplex stabilizer agents and targeted small molecules. Complex spheroids include a stromal component modeled by human endothelial cells (HUVEC) and fibroblasts modeled by human mesenchymal stem cells (MSCs). The concentration ranges selected for each drug and investigational agent were based upon clinically achievable concentrations if the clinical Cmax of the agent was known.
Compounds. The drugs and investigational agents: pidnarulex (CX-5461; NSC782164), APTO-253 (NSC789042), BRACO-19 (NSC847499), peposertib (NSC802822), ceralasertib (NSC780249), elimusertib (NSC800525), camonsertib (NSC841442), AZD-1390 (NSC803789), olaparib (NSC753686), talazoparib (NSC767125), ART-558 (NSC835418), sotorasib (NSC818433), MRTX-1133 (NSC836407), SN-38 (NSC673596), topotecan (NSC609699), etoposide (NSC141540), doxorubicin (NSC123127), gemcitabine (NSC613327), 5-fluorouracil (NSC19893), paclitaxel (NSC125973), vemurafenib (NSC761431), panobinostat (NSC761190), R-306465 (JNJ-16241199; NSC773264), adavosertib (NSC754352), TP-3654 (NSC805149), carboplatin (NSC241240), KSQ-4279 (NSC840948), and staurosporine (NSC755774) were obtained from the National Cancer Institute (NCI) Developmental Therapeutics Program Chemical Repository (34). The FDA-approved anticancer drug set is available from the NCI Developmental Therapeutics Program. […] The stock solutions were prepared in dimethyl sulfoxide (DMSO, Sigma-Aldrich, St. Louis, MO, cat. D2650) at 800-fold the tested concentration and stored at -70 degrees C prior to their use. All drugs and investigational agents were tested over a range starting from a high concentration at or near the clinical Cmax and decreasing in half-log increments. If the clinical Cmax for an agent had not been determined, the highest concentration tested was 10 microM.
2.3 Cell Culture. All cells were maintained in an incubator at 37 degrees C and 5% CO2 with 95% humidity. The PDC lines were cultured according to standard operating procedures established by the NCI PDMR. All PDCs were thawed and cultured in Matrigel-coated flasks prepared with a working solution of 1X Ham's F-12 nutrient mix, without supplementation (Invitrogen, cat. 11765054), 100 U/mL penicillin-streptomycin (Invitrogen, cat. 15140122), and 2.5% Matrigel (Corning Inc., cat. 354248) for the first three passages. The 857933-349-R-J2-PDC line was cultured in 6C/Colon 1B media, which includes advanced DMEM/F-12 (Thermo Fisher Scientific, cat. 12634028), 10 mM HEPES (Thermo Fisher Scientific, cat. 15630080), 1X GlutaMAX supplement (Thermo Fisher Scientific, cat. 35050061), 0.1 mg/mL primocin (InvivoGen, cat. ant-pm-2), 10% defined fetal bovine serum, heat inactivated (HyClone Laboratories Inc., cat. SH30070.03HI), 50% L-WRN conditioned media (ATCC, cat. CRL-3276), 1.25 mM N-Acetyl-L-cysteine (Sigma-Aldrich, cat. A9165), 10 mM nicotinamide (Sigma-Aldrich, cat. N0636), 1X B-27 supplement (Thermo Fisher Scientific, cat. 17504044), 1X N-2 supplement (Thermo Fisher Scientific, cat. 17502048), 10 microM Y-27632 dihydrochloride (Tocris Bioscience, cat. 1254), and 50 ng/mL human EGF recombinant protein (Thermo Fisher Scientific, cat. PHG0311). The 485176-168-R4-J1-PDC line was cultured in Panc media, which includes all 6C/Colon 1B media components plus 100 ng/mL human FGF-10 (Thermo Fisher Scientific, cat. 100-26), 500 nM SB-431542 (Selleckchem, cat. S1067), and gastrin (Tocris, cat. 3006).
[…]
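Note: spheroids exposed to compounds for one week before readout.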
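Throughout, for viability, T/C: percent viability relative to DMSO vehicle wells taken as 100%.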

## CC1COCCN1c1cc(C2(S(C)(=N)=O)CC2)nc(-c2ccnc3[nH]ccc23)n1 (stereo not given) + CN(C)c1ccc(Nc2c3ccc(NC(=O)CCN4CCCC4)cc3nc3cc(NC(=O)CCN4CCCC4)ccc23)cc1
Curve of first compound, second compound 0.0316 µM
  IC50: 956 nM
Curve of first compound, second compound 0.1 µM
  IC50: 1150 nM
Curve of first compound, second compound 0.316 µM
  IC50: 432 nM
Curve of first compound, second compound 1 µM
  IC50: 77.3 nM
Curve of first compound, second compound 3.16 µM
  IC50: < 31.6 nM
Curve of first compound, second compound 10 µM
  IC50: < 31.6 nM
Second compound 0.0316 µM, first compound 0.0316 µM
  viability, T/C: 123%
Second compound 0.0316 µM, first compound 0.1 µM
  viability, T/C: 111%
Second compound 0.0316 µM, first compound 0.316 µM
  viability, T/C: 81.6%
Second compound 0.0316 µM, first compound 1 µM
  viability, T/C: 49.3%
Second compound 0.0316 µM, first compound 3.16 µM
  viability, T/C: 25.8%
Second compound 0.0316 µM, first compound 10 µM
  viability, T/C: 15.9%
Second compound 0.1 µM, first compound 0.0316 µM
  viability, T/C: 141%
Second compound 0.1 µM, first compound 0.1 µM
  viability, T/C: 105%
Second compound 0.1 µM, first compound 0.316 µM
  viability, T/C: 82.6%
Second compound 0.1 µM, first compound 1 µM
  viability, T/C: 54.6%
Second compound 0.1 µM, first compound 3.16 µM
  viability, T/C: 22.2%
Second compound 0.1 µM, first compound 10 µM
  viability, T/C: 17.1%
Second compound 0.316 µM, first compound 0.0316 µM
  viability, T/C: 84.9%
Second compound 0.316 µM, first compound 0.1 µM
  viability, T/C: 79.9%
Second compound 0.316 µM, first compound 0.316 µM
  viability, T/C: 55.7%
Second compound 0.316 µM, first compound 1 µM
  viability, T/C: 32%
Second compound 0.316 µM, first compound 3.16 µM
  viability, T/C: 21.6%
Second compound 0.316 µM, first compound 10 µM
  viability, T/C: 16.8%
Second compound 1 µM, first compound 0.0316 µM
  viability, T/C: 56.6%
Second compound 1 µM, first compound 0.1 µM
  viability, T/C: 44.1%
Second compound 1 µM, first compound 0.316 µM
  viability, T/C: 41.9%
Second compound 1 µM, first compound 1 µM
  viability, T/C: 18.3%
Second compound 1 µM, first compound 3.16 µM
  viability, T/C: 15.2%
Second compound 1 µM, first compound 10 µM
  viability, T/C: 7.51%
Second compound 3.16 µM, first compound 0.0316 µM
  viability, T/C: 38%
Second compound 3.16 µM, first compound 0.1 µM
  viability, T/C: 24.3%
Second compound 3.16 µM, first compound 0.316 µM
  viability, T/C: 37.5%
Second compound 3.16 µM, first compound 1 µM
  viability, T/C: 12.3%
Second compound 3.16 µM, first compound 3.16 µM
  viability, T/C: 8.02%
Second compound 3.16 µM, first compound 10 µM
  viability, T/C: 7.55%
Second compound 10 µM, first compound 0.0316 µM
  viability, T/C: 3.33%
Second compound 10 µM, first compound 0.1 µM
  viability, T/C: 5.73%
Second compound 10 µM, first compound 0.316 µM
  viability, T/C: 7.2%
Second compound 10 µM, first compound 1 µM
  viability, T/C: 6.92%
Second compound 10 µM, first compound 3.16 µM
  viability, T/C: 3.25%
Second compound 10 µM, first compound 10 µM
  viability, T/C: 1.68%

## CC1COCCN1c1cc(C2(S(C)(=N)=O)CC2)nc(-c2ccnc3[nH]ccc23)n1 (stereo not given)
Compound 0.0316 µM
  viability, T/C: 88.1% and 103% and 100%
Compound 0.1 µM
  viability, T/C: 104% and 90.7% and 106%
Compound 0.316 µM
  viability, T/C: 91.8% and 90.3% and 101%
Compound 1 µM
  viability, T/C: 50.2% and 61.5% and 87%
Compound 3.16 µM
  viability, T/C: 23.9% and 23.1% and 24.4%
Compound 10 µM
  viability, T/C: 13.9% and 18.3% and 13.1%
Curve of compound
  IC50: 1050 nM and 1400 nM and 1980 nM

## Cc1cccc(N(C)C(=O)C2C(O)CCN2c2nc(C)cc(C(F)(F)F)c2C#N)c1 (stereo not given)
Compound 0.0316 µM
  viability, T/C: 98.9% and 109% and 103%
Compound 0.1 µM
  viability, T/C: 92.7% and 102% and 96.2%
Compound 0.316 µM
  viability, T/C: 91.3% and 123% and 98.8%
Compound 1 µM
  viability, T/C: 106% and 90.7% and 99.7%
Compound 3.16 µM
  viability, T/C: 105% and 86.5% and 93.1%
Compound 10 µM
  viability, T/C: 81.7% and 77.5% and 81.6%
Curve of compound
  IC50: > 10000 nM

## O=c1[nH]cc(F)c(=O)[nH]1
Compound 0.0316 µM
  viability, T/C: 102% and 111% and 94.4%
Compound 0.1 µM
  viability, T/C: 112% and 101% and 100%
Compound 0.316 µM
  viability, T/C: 95.9% and 101% and 111%
Compound 1 µM
  viability, T/C: 59.7% and 96.8% and 66.8%
Compound 3.16 µM
  viability, T/C: 35% and 34% and 49.6%
Compound 10 µM
  viability, T/C: 36.3% and 23.9% and 38.4%
Curve of compound
  IC50: 1600 nM and 2360 nM and 2340 nM

## CC(C)(O)C1CCC(Nc2ccc3ncc(-c4cccc(C(F)(F)F)c4)n3n2)CC1 (stereo not given)
Compound 0.0316 µM
  viability, T/C: 116% and 108% and 110%
Compound 0.1 µM
  viability, T/C: 95.4% and 96.7% and 97.2%
Compound 0.316 µM
  viability, T/C: 83% and 89.8% and 76.7%
Compound 1 µM
  viability, T/C: 30% and 33.8% and 28.6%
Compound 3.16 µM
  viability, T/C: 0.43% and 0.52% and 1.03%
Compound 10 µM
  viability, T/C: 0.85% and 0.69% and 1%
Curve of compound
  IC50: 633 nM and 711 nM and 588 nM
